US7674802B2, “N-linked aryl heteroaryl inhibitors of LTA4H for treating inflammation” (deCODE genetics, ehf, priority 2005, dated 2010)
Counter-ions that a name gives are not always drawn. Like-named read-outs stand apart in the source and are kept apart here. Each block holds one compound with its values, some of them ahead of it.

Legend:
[1] = target: T1, human LTA4 hydrolase (Homo sapiens, UniProt P09960); assay: In vitro assay testing inhibitory activity against purified recombinant human LTA4 hydrolase; assay type: biochemical
T1 construct: A human LTA4 hydrolase full-length cDNA clone (NM_000895) was purchased; His tag (own knowledge: pDEST17 adds an N-terminal 6xHis); made in house; host or cells: Escherichia coli BL21-AI
T1 sequence (P09960 1-611): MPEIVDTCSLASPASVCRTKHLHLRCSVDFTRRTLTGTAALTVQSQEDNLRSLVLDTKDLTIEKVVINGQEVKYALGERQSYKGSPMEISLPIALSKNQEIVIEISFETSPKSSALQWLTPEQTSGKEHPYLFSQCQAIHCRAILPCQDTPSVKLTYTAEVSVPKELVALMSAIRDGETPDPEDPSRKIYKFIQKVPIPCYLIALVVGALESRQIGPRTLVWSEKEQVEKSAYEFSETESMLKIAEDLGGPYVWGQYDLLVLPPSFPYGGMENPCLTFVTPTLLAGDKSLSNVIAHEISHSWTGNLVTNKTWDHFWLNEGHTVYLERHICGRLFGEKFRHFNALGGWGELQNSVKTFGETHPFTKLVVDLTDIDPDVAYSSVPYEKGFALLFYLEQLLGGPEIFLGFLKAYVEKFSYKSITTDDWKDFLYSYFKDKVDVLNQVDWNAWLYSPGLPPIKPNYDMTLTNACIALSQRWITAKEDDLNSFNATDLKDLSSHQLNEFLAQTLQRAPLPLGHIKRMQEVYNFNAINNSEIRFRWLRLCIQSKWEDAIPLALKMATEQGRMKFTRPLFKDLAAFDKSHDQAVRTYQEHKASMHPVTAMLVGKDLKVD
Description: (1) In vitro Assay Testing Inhibitory Activity Against Purified Recombinant Human LTA4 Hydroase:
A human LTA4 hydrolase full-length cDNA clone (NM_000895) was purchased from OriGene Technologies (Rockville, Md.). The gene was amplified by polmerase chain reaction and transferred via pDONR201 into the bacterial expression vector pDEST17 by recombination (both plasmids from Invitrogen, Carlsbad, Calif.). The resulting construct was transformed into Escherichia coli BL21-AI (Invitrogen), and expression was induced by chemical induction with arabinose. The recombinant enzyme was purified by chromatography on a FPLC system (Amersham Biosciences, Uppsala, Sweden) using immobilized metal affinity chromatography (Ni-NTA Superflow, Qiagen, Hilden, Germany) and anion exchange chromatography (MonoQ HR 10/10, Amersham Biosciences).
(§1) The compounds of the invention were incubated in a series of dilutions with 200 nM of recombinant enzyme in assay buffer (100 mM Tris-HCl, 100 mM NaCl, 5 mg/ml fatty-acid free BSA, 10% DMSO, pH 8.0) for 10 min at room temperature to allow binding between LTA4 hydrolase and the inhibitors. LTA4 was prepared by alkaline hydrolysis of LTA4 methyl ester (Biomol, Plymouth Meeting, Pa., or Cayman Chemicals, Ann Arbor, Mich.). A solution of 10 μg of the ester was dried under a nitrogen stream and redissolved in 60 μl of a solution of 80% aceton and 20% 0.25 M NaOH.
After incubation for 40 min at room temperature the resulting approximately 500 μM tock of LTA4 was kept at −80° C. for no more than a few days prior to use.
Immediately before the assay, LTA4 was diluted to a concentration of 10 μM in assay buffer (without DMSO) and added to the reaction mixture to a final concentration of 2 μM to initiate the enzyme reaction. After incubation for 120 sec at room temperature, the reaction was stopped by ading 2 volumes of chilled quenching buffer, containing acetonitril with 1% acetic acid and 225 nM LTB4-d4 (Biomol). The samples were then kept at 4° C. over night to complete protein precipitation and centrifuged for 15 min at 1800 g. LTB4 formed was measured by LC-MS/MS using LTB4-d4 as an internal standard and an external LTB4 standard (Biomol) as reference. Briefly, the analyte was separated from LTB4 isomers formed by spontaneous hydrolysis of LTA4 using isocratic elution (modified protocol from Mueller et al. (1996), J. Biol. Chem. 271, 24345-24348) on a HPLC system (Waters, Milford, Mass.) and analyzed on a tandem quadrupole mass spectrometer (Waters). MRM transitions followed on 2 channels were 335.2>195.3 (LTB4) and 339.2>197.3 (LTB4-d4). Based on the amounts of LTB4 found at each inhibitor concentration, a dose-response curve was fitted to the data and an IC50 value was calculated.
as §1, with “NaOH. After incubation for 40 min at room temperature the resulting approximately 500 μM tock of LTA4 was kept at −80° C. for no more than a few days prior to use.” for “NaOH.”

[2] = system: ionophore-induced LTB4 production; conditions: oral administration; cited from earlier work
[3] = eight weeks of treatment, primate model; cited from earlier work
[4] = system: ionophore-induced LTB4 production; conditions: oral administration; cited from earlier work; remark: listed apart in the source
[5] = Table I, read-out: IC50 (μM) (hLTA4H)
[6] = Table IV, read-out: hLTA4H Enyzme IC 50
[7] = Table III, read-out: IC50 (μM) (hLTA4H)
[8] = Table V, read-out: hLTA4H Enzyme IC50
[9] = Table II, read-out: IC50 (μM)(hLTA4H)

Compound: c1ccc2c(c1)cnn2-c1ccc(OC[C@H]2CCCN2)cc1
IC50 [1, 8]: 5 to 20 µM

Compound: CNCCCOc1ccc(-n2nc3ccccc3c2Cl)cc1 [Example 4, {3-[4-(3-Chloro-indazol-2-yl)-phenoxy]-propyl}-methyl-amine hydrochloride]
IC50 [1, 5]: < 5 µM | IC50 [1, 6]: < 5 µM

Compound: O=C1c2ccccc2C(=O)N1c1ccc(OC[C@H]2CCCN2)cc1
IC50 [1, 8]: < 5 µM

Compound: CC1Cc2ccccc2N1c1ccc(OC[C@H]2CCCN2)cc1 (stereo partly shown)
IC50 [1, 8]: > 20 µM

Compound: CN(CCCC(=O)O)CCOc1ccc(-n2nc3ccccc3c2Cl)cc1 [Example 3, 4-({2-[4-(3-Chloro-indazol-2-yl)-phenoxy]-ethyl}-methyl-amino)butyric acid hydrchloride salt]
IC50 [1, 5]: < 5 µM | IC50 [1, 6]: < 5 µM

Compound: NC(=O)C1CCN(CCCOc2ccc(-n3nc4ccccc4c3Cl)cc2)CC1 [Example 10, 1-{3-[4-(3-Chloro-indazol-2-yl)-phenoxy]-propyl}-piperidine-4-carboxylic acid amide]
IC50 [1, 9]: < 5 µM | IC50 [1, 6]: < 5 µM

Compound: CN1CCC[C@@H]1COc1ccc(N2Cc3ccccc3C2)cc1
IC50 [1, 8]: 5 to 20 µM

Compound: O=C(O)CCCN1CCC[C@@H]1COc1ccc(-n2nc3ccccc3c2Cl)cc1 [Example 17, 4-{(R)-2-[4-(3-Chloro-indazol-2-yl)-phenoxymethyl]-pyrrolidin-1-yl}-butyric acid Hydrochloride]
IC50 [1, 7]: < 5 µM | IC50 [1, 6]: < 5 µM

Compound: Clc1c2ccccc2nn1-c1ccc(OCCN2CCCCC2)cc1 [Example 1, 3-Chloro-2-[4-(2-piperidin-1-yl-ethoxy)-phenyl]-2H-idazole]
IC50 [1, 9]: < 5 µM | IC50 [1, 6]: < 5 µM

Compound: OCC1CCN(CCCOc2ccc(-n3nc4ccccc4c3Cl)cc2)CC1 [Example 11, (1-{3-[4-(3-Chloro-indazol-2-yl)-phenoxy]-propyl}-piperidin-4-yl)-methanol]
IC50 [1, 9]: < 5 µM | IC50 [1, 6]: < 5 µM

Compound: CN(CCCOc1ccc(Cc2ccccc2)cc1)CCC(=O)O.Cl [SC57461]
inhibition of ionophore-induced LTB4 production in rat peritoneum in vivo [2]: inhibition of ionophore-induced LTB4 production | colitis symptoms [3]: significantly improved colitis symptoms | inhibition of ionophore-induced LTB4 production in mouse blood ex vivo [4]: inhibition of ionophore-induced LTB4 production

Other lines, results leading:

IC50 [1, 5]: < 5 µM | IC50 [1, 6]: < 5 µM
Compound: CN(CCCOc1ccc(-n2nc3ccccc3c2Cl)cc1)CCCC(=O)O [Example 6, 4-({3-[4-(3-Chloro-indazol-2-yl)-phenoxy]-propyl}-methyl-amino)butyric acid Hydrochloride]

IC50 [1, 7]: < 5 µM | IC50 [1, 6]: < 5 µM
Compound: Clc1c2ccccc2nn1-c1ccc(OC[C@H]2CCCN2)cc1 [Example 12, 3-Chloro-2-[4-((R)-1-pyrrolidin-2-ylmethoxy)-phenyl]-2H-indazole]

IC50 [1, 7]: < 5 µM | IC50 [1, 6]: < 5 µM
Compound: Clc1c2ccccc2nn1-c1ccc(OC[C@@H]2CCCN2)cc1 [Example 13, 3-Chloro-2-[4-((S)-1-pyrrolidin-2-ylmethoxy)-phenyl]-2H-indazole hydrochloride]

IC50 [1, 9]: < 5 µM | IC50 [1, 6]: < 5 µM
Compound: O=C(O)C1CCN(CCCOc2ccc(-n3nc4ccccc4c3Cl)cc2)CC1 [Example 8, 1-{3-[4-(3-Chloro-indazol-2-yl)-phenoxy]-propyl}-piperidine-4-carboxylic acid hydrochloride]

IC50 [1, 8]: < 5 µM
Compound: O=C1c2ccccc2C(=O)N1c1ccc(OCCN2CCCCC2)cc1

IC50 [1, 9]: < 5 µM | IC50 [1, 6]: < 5 µM
Compound: CNC(=O)C1CCN(CCCOc2ccc(-n3nc4ccccc4c3Cl)cc2)CC1 [Example 9, 1-{3-[4-(3-Chloro-indazol-2-yl)-phenoxy]-propyl}-piperidine-4-carboxylic acid methylamide]

IC50 [1, 7]: < 5 µM | IC50 [1, 6]: < 5 µM
Compound: O=C(O)CN1CCC[C@H]1COc1ccc(-n2nc3ccccc3c2Cl)cc1 [Example 18, {(S)-2-[4-(3-Chloro-indazol-2-yl)-phenoxymethyl]-pyrrolidin-1-yl}-acetic acid Hydrochloride]

IC50 [1, 7]: < 5 µM | IC50 [1, 6]: < 5 µM
Compound: O=C(O)CCCN1CCC[C@H]1COc1ccc(-n2nc3ccccc3c2Cl)cc1 [Example 19, 4-{(S)-2-[4-(3-Chloro-indazol-2-yl)-phenoxymethyl]-pyrrolidin-1-yl}-butyric acid Hydrochloride]

IC50 [1, 7]: < 5 µM | IC50 [1, 6]: < 5 µM
Compound: O=C(O)CN1CCC[C@@H]1COc1ccc(-n2nc3ccccc3c2Cl)cc1 [Example 15, {(R)-2-[4-(3-Chloro-indazol-2-yl)-phenoxymethyl]-pyrrolidin-1-yl}-acetic acid Hydrochloride]

IC50 [1, 5]: < 5 µM | IC50 [1, 6]: < 5 µM
Compound: CN(CCCOc1ccc(-n2nc3ccccc3c2Cl)cc1)CCC(=O)O [Example 5, 3-({3-[4-(3-Chloro-indazol-2-yl)-phenoxy]-propyl}-methyl-amino)-propionic acid hydrochloride salt]

IC50 [1, 7]: < 5 µM | IC50 [1, 6]: < 5 µM
Compound: O=C(O)CCN1CCC[C@@H]1COc1ccc(-n2nc3ccccc3c2Cl)cc1 [Example 16, 3-{(R)-2-[4-(3-Chloro-indazol-2-yl)-phenoxymethyl]-pyrrolidin-1-yl}-propionic acid Hydrochloride]

IC50 [1, 8]: > 20 µM
Compound: Cc1cn(-c2ccc(OC[C@H]3CCCN3)cc2)c2ccccc12

IC50 [1, 5]: < 5 µM | IC50 [1, 6]: < 5 µM
Compound: CN(CCOc1ccc(-n2nc3ccccc3c2Cl)cc1)CCC(=O)O [Example 2, 3-({2-[4-(3-Chloro-indazol-2-yl)-phenoxy]-ethyl}-methyl-amino)-propionic acid hydrochloride]
